According to US20260372305A1, “A METHOD FOR CONTROLLING WEEDS” (SYNGENTA CROP PROTECTION AG, priority 2022, published 2026):
“And” between values parts separate entries of the source, which are not always exact repeats. Equal values may be shown once.

Assays:
[1] = tested on: Amaranthus tuberculatus, homozygous for the deletion of glycine at amino acid 210 in PPX2L (G210 deletion); assay: Postemergence control of Amaranthus tuberculatus with G210 deletion in PPX2L (Example 2); type: in vivo
[2] = tested on: Amaranthus tuberculatus with a mutation at amino acid 210; assay: Field trial: control of Amaranthus tuberculatus visually assessed as % weed control (Example 3); type: in vivo
Procedure: A field trial was carried out in a plot in Canada. The plot size per replicate was set to 10 m^2. Compound 1 and the standard product saflufenacil were applied to about 4 inch (about 10 cm) tall Amaranthus tuberculatus with a mutation at amino acid 210, using a water volume of 300 I/ha. The efficacy of the tested compounds was visually assessed 14 days after the application and expressed in % weed control, whereas ratings range from 100% being complete control and 0% representing weed populations/growth similar to what is observed in the untreated check. Only species present at a sufficient density and consistency were assessed for reliable ratings.

Row | Compound | % Survival out of 14 repetitions ([1]; […], 0.5 g ai/ha^−1, postemergence, 14 days after application, Agridex 1% by volume) | % Survival out of 14 repetitions ([1]; […], 1 g ai/ha^−1, postemergence, 14 days after application, Agridex 1% by volume) | % Survival out of 14 repetitions ([1]; […], 2 g ai/ha^−1, postemergence, 14 days after application, Agridex 1% by volume) | % Survival out of 14 repetitions ([1]; […], 4 g ai/ha^−1, postemergence, 14 days after application, Agridex 1% by volume) | % Survival out of 14 repetitions ([1]; […], 8 g ai/ha^−1, postemergence, 14 days after application, Agridex 1% by volume) | % Survival out of 14 repetitions ([1]; […], 16 g ai/ha^−1, postemergence, 14 days after application, Agridex 1% by volume) | % Survival out of 14 repetitions ([1]; […], 32 g ai/ha^−1, postemergence, 14 days after application, Agridex 1% by volume) | % Survival out of 14 repetitions ([1]; […], 64 g ai/ha^−1, postemergence, 14 days after application, Agridex 1% by volume) | plant survival ([1]; at or beyond 32 g ai/ha) | control of PPO inhibitor herbicide resistant Amaranthus tuberculatus with a mutation at amino acid 210 compared with fomesafen ([1]; in vivo) | control of Amaranthus tuberculatus with a mutation at codon 210 compared to saflufenacil [2] | % Survival out of 14 repetitions ([1]; in vivo) | plant survival ([1]; in vivo)
1 | CCOC(=O)[C@]1(C)CC(c2cc(-n3c(=O)n(C)c(=S)n(C)c3=O)c(F)cc2Cl)=NO1 [compound 1, ethyl (5S)-3-[2-chloro-5-(3,5-dimethyl-2,6-dioxo-4-thioxo-1,3,5-triazinan-1-yl)-4-fluoro-phenyl]-5-methyl-4H-isoxazole-5-carboxylate] | 100% | 100% | 100% | 100% | 86% | 50% | 0% | 0% | no plants survived | superior control | equivalent, if not slightly improved control | – | –
2 | CS(=O)(=O)NC(=O)c1cc(Oc2ccc(C(F)(F)F)cc2Cl)ccc1[N+](=O)[O-] [fomesafen, reference compound] | – | – | – | – | – | – | – | – | – | – | – | 100% and 93% | significant plant survival
